Experimental data: PMC6432887 (Drug Design, Development and Therapy, 2019)

How the values were obtained:
[1] = cited from earlier work
[2] = Single-dose crossover bioavailability study, REP plasma levels by LC-MS/MS; format: in vivo, rabbits; settings: male, albino, rabbit, po
[3] = In vitro dissolution studies; format: physicochemical; settings: phosphate buffer pH 6.8

AUC(0-inf) [2]: 95400 ± 7220 ng·h/mL
AUC(0-t) [2]: 93400 ± 5610 ng·h/mL
Cmax [2]: 31900 ± 1620 ng/mL
Tmax [2]: 1 ± 0.143 h
half-life [2]: 1.31 ± 0.117 h
k el [2]: 0.000147 s⁻¹
percentage drug released ([3]; optimized formulae, alginate film and plain drug, within 30 minutes): 22.981%
release rate ([3]; within 10 minutes): 8.166%
release rate ([3]; within 15 minutes): 19.65%
SMILES: CCOc1cc(CC(=O)N[C@@H](CC(C)C)c2ccccc2N2CCCCC2)ccc1C(=O)O [Plain REP, Repaglinide]
Biopharmaceutics Classification System (BCS) class [1]: class II
